From patent publication US20250098679A1, “HERBICIDAL PYRIDONE DERIVATIVES” (SYNGENTA CROP PROTECTION AG, priority 2021, published 2025)

Key:
Type in all cases: in vivo
Zea mays (ZEAMX) = experiment: Post-emergence Test, Zea mays (ZEAMX); design: key to percentage damage caused to the plant, ZEAMX (five-point scale): 5=81-100%, 4=61-80%, 3=41-60%, 2=21-40%, 1=0-20% damage; conditions: evaluated after 13 days
Procedure: (§1) Seeds of a variety of test species are sown in standard soil in pots (Setaria faberi (SETFA), Echinochloa crus-galli (ECHCG), Zea mays (ZEAMX), Ipomoea hederacea (IPOHE), Amaranthus palmeri (AMAPA), Amaranthus retoflexus (AMARE)). After 8 days cultivation under controlled conditions in a glasshouse (at 24° C./16° C., day/night; 14 hours light; 65% humidity), the plants are sprayed with an aqueous spray solution derived from the formulation of the technical active ingredient in acetone/water (50:50) solution containing 0.5% Tween 20 (polyoxyethelyene sorbitan monolaurate, CAS RN 9005-64-5). Compounds are applied at 1000 g/ha unless otherwise stated. The test plants are then grown in a glasshouse under controlled conditions in a glasshouse (at 24° C./16° C., day/night; 14 hours light; 65% humidity) and watered twice daily. After 13 days the test is evaluated for the percentage damage caused to the plant. The biological activities are shown in the following table on a five-point scale (5=81-100%; 4=61-80%; 3=41-60%; 2=21-40%; 1=0-20%; -=not tested).

[1] = test system: Amaranthus retoflexus (AMARE); experiment: Post-emergence Test, Amaranthus retoflexus (AMARE); design: key to percentage damage caused to the plant, AMARE (five-point scale): 5=81-100%, 4=61-80%, 3=41-60%, 2=21-40%, 1=0-20% damage; conditions: evaluated after 13 days
Procedure: as §1

[2] = test system: Ipomoea hederacea (IPOHE); experiment: Post-emergence Test, Ipomoea hederacea (IPOHE); design: key to percentage damage caused to the plant, IPOHE (five-point scale): 5=81-100%, 4=61-80%, 3=41-60%, 2=21-40%, 1=0-20% damage; conditions: evaluated after 13 days
Procedure: as §1

[3] = test system: Echinochloa crus-galli (ECHCG); experiment: Post-emergence Test, Echinochloa crus-galli (ECHCG); design: key to percentage damage caused to the plant, ECHCG (five-point scale): 5=81-100%, 4=61-80%, 3=41-60%, 2=21-40%, 1=0-20% damage; conditions: evaluated after 13 days; for Post-emergence Test ECHCG, percentage damage caused to the plant (five-point scale): 250 g/Ha (*)
Procedure: as §1

Setaria faberi (SETFA) = experiment: Post-emergence Test, Setaria faberi (SETFA); design: key to percentage damage caused to the plant, SETFA (five-point scale): 5=81-100%, 4=61-80%, 3=41-60%, 2=21-40%, 1=0-20% damage; conditions: evaluated after 13 days
Procedure: as §1

[4] = test system: Amaranthus palmeri (AMAPA); experiment: Post-emergence Test, Amaranthus palmeri (AMAPA); design: key: 5=81-100%, 4=61-80%, 3=41-60%, 2=21-40%, 1=0-20% damage; conditions: evaluated after 13 days
Procedure: as §1

Row | Structure (SMILES) | percentage damage caused to the plant, ZEAMX (five-point scale) (Zea mays (ZEAMX); 250 g/Ha) | percentage damage caused to the plant, ZEAMX (five-point scale) (Zea mays (ZEAMX); 1000 g/ha) | percentage damage caused to the plant, AMARE (five-point scale) ([1]; 250 g/Ha) | percentage damage caused to the plant, AMARE (five-point scale) ([1]; 1000 g/ha) | percentage damage caused to the plant, IPOHE (five-point scale) ([2]; 250 g/Ha) | percentage damage caused to the plant, IPOHE (five-point scale) ([2]; 1000 g/ha) | percentage damage caused to the plant, ECHCG (five-point scale) ([3]; 250 g/Ha) | percentage damage caused to the plant, SETFA (five-point scale) (Setaria faberi (SETFA); 1000 g/ha) | percentage damage caused to the plant, AMAPA (five-point scale) ([4]; 250 g/Ha) | percentage damage caused to the plant, AMAPA (five-point scale) ([4]; 1000 g/ha) | Post-emergence Test ZEAMX, percentage damage caused to the plant (five-point scale) (Zea mays (ZEAMX); 250 g/Ha (*)) | Post-emergence Test ZEAMX, percentage damage caused to the plant (five-point scale) (Zea mays (ZEAMX); 1000 g/ha) | Post-emergence Test AMARE, percentage damage caused to the plant (five-point scale) ([1]; 250 g/Ha (*)) | Post-emergence Test AMARE, percentage damage caused to the plant (five-point scale) ([1]; 1000 g/ha) | Post-emergence Test IPOHE, percentage damage caused to the plant (five-point scale) ([2]; 250 g/Ha (*)) | Post-emergence Test IPOHE, percentage damage caused to the plant (five-point scale) ([2]; 1000 g/ha) | Post-emergence Test ECHCG, percentage damage caused to the plant (five-point scale) [3] | Post-emergence Test SETFA, percentage damage caused to the plant (five-point scale) (Setaria faberi (SETFA); 1000 g/ha) | Post-emergence Test AMAPA, percentage damage caused to the plant (five-point scale) ([4]; 250 g/Ha (*)) | Post-emergence Test AMAPA, percentage damage caused to the plant (five-point scale) ([4]; 1000 g/ha) | also measured
1 | CCn1c(Cn2nc(C(F)(F)F)cc2C2CC2)cc(=O)c(C(=O)O)c1-c1ccc(Cl)c(Cl)c1 [Compound 184, 6-[[5-cyclopropyl-3-(trifluoromethyl)pyrazol-1-yl]methyl]-2-(3,4-dichlorophenyl)-1-ethyl-4-oxo-pyridine-3-carboxylic acid] | 1 (1=0-20%) | 3 (3=41-60%) | 1 (1=0-20%) | 3 (3=41-60%) | 1 (1=0-20%) | 4 (4=61-80%) | 3 (3=41-60%) | 4 (4=61-80%) | 1 (1=0-20%) | 3 (3=41-60%) | – | – | – | – | – | – | – | – | – | – | –
2 | CCn1c(Cn2ccc(-c3ccc(Cl)cc3)n2)cc(=O)c(C(=O)O)c1-c1ccc(Cl)c(Cl)c1 [Compound 199, 6-[[3-(4-chlorophenyl)pyrazol-1-yl]methyl]-2-(3,4-dichlorophenyl)-1-ethyl-4-oxo-pyridine-3-carboxylic acid] | – | – | – | – | – | – | – | – | – | – | 0 | 0 | 0 | 0 | 0 | 2 (2=21-40%) | 1 (1=0-20%) | 0 | 0 | 0 | –
3 | CCn1c(Cn2ccc(O)n2)cc(=O)c(C(=O)O)c1-c1ccc(Cl)c(Cl)c1 [Compound 167, 2-(3,4-dichlorophenyl)-1-ethyl-6-[(3-hydroxypyrazol-1-yl)methyl]-4-oxo-pyridine-3-carboxylic acid] | – | 0 | – | 0 | – | 0 | – | 0 | – | 1 (1=0-20%) | – | – | – | – | – | – | – | – | – | – | percentage damage caused to the plant, ECHCG (five-point scale) ([3]; 1000 g/ha): 0
4 | CCn1c(Cn2ccc(C(F)(F)F)n2)cc(=O)c(C(=O)O)c1-c1ccc(N)c(Cl)c1 [Compound 133, 2-(4-amino-3-chloro-phenyl)-1-ethyl-4-oxo-6-[[3-(trifluoromethyl)pyrazol-1-yl]methyl]pyridine-3-carboxylic acid] | 0 | 0 | 1 (1=0-20%) | 1 (1=0-20%) | 0 | 1 (1=0-20%) | 0 | 0 | 1 (1=0-20%) | 1 (1=0-20%) | – | – | – | – | – | – | – | – | – | – | percentage damage caused to the plant, ECHCG (five-point scale) ([3]; 1000 g/ha): 0; percentage damage caused to the plant, SETFA (five-point scale) (Setaria faberi (SETFA); 250 g/Ha): 1 (1=0-20%)
5 | CCn1c(Cn2ccc(-c3ccco3)n2)cc(=O)c(C(=O)O)c1-c1ccc(Cl)c(Cl)c1 [Compound 200] | – | – | – | – | – | – | – | – | – | – | 1 (1=0-20%) | 1 (1=0-20%) | 0 | 0 | 0 | 1 (1=0-20%) | 1 (1=0-20%) | 1 (1=0-20%) | 0 | 0 | –
